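A five-concentration, 48-hour dose response in 96-well plates underlies each endpoint, interpolated linearly between surrounding concentrations. GI50 is the concentration that inhibits growth by half.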 Calls of active or inactive are those of the source. Cut-off read from the data, not from the text of the source: active = GI50 up to about 1.1 µM and inactive = higher.
Columns and labels:
Test in all cases: DTP human tumour cell line panel, 48 h
[1] = test system: SK-MEL-28
[2] = test system: MDA-MB-231
[3] = test system: UACC-257
[4] = test system: T47D
[5] = test system: PC-3
[6] = test system: SW-620
[7] = test system: COLO 205
[8] = test system: CCRF-CEM
[9] = test system: MDA-N
[10] = test system: NCI-H226
[11] = test system: NCI/ADR-RES
[12] = test system: OVCAR-5
[13] = test system: OVCAR-4
[14] = test system: SK-MEL-2
[15] = test system: UO-31
[16] = test system: SK-MEL-5
[17] = test system: SN12C
[18] = test system: BT-549
[19] = test system: SNB-19
[20] = test system: EKVX

Measured: GI50

O=C1c2ccccc2C(=O)N1n1c(Cc2ccc(Cl)cc2)n[nH]c1=O
inactive: [1] > 100 µM | [2] > 100 µM | [3] > 100 µM | [4] > 100 µM | [5] > 100 µM | [6] > 100 µM | [7] > 100 µM | [8] > 100 µM | [9] > 100 µM | [10] > 100 µM | [11] > 100 µM | [12] > 100 µM | [13] > 100 µM | [14] > 100 µM | [15] > 100 µM | [16] > 100 µM | [17] > 100 µM | [18] > 100 µM | [19] > 100 µM | [20] > 100 µM

c1ccc2cc(CN3CCC(C4CCN(Cc5ccc6ccccc6c5)CC4)CC3)ccc2c1
inactive: [1] 1.87 µM | [2] 4.82 µM | [3] 1.98 µM | [4] 4.76 µM | [5] 9.42 µM | [6] 2.74 µM | [7] 1.76 µM | [8] 4.06 µM | [9] 1.96 µM | [10] 11.4 µM | [11] 6.79 µM | [12] 10.1 µM | [13] 6.21 µM | [14] 2.18 µM | [15] 1.34 µM | [16] 2.06 µM | [17] 21.8 µM | [18] 10.3 µM | [19] 11.5 µM | [20] 8.24 µM

CC(=O)NCCC1CN(C(=O)/C=C/I)c2ccccc21 (stereo not given)
inactive: [1] 6.04 µM | [2] 2.91 µM | [3] 7.48 µM | [4] 2.04 µM | [5] 8.81 µM | [6] 2.1 µM | [7] 3.75 µM | [8] 2.95 µM | [9] 3.08 µM | [10] 14.5 µM | [11] 10.1 µM | [12] 15.8 µM | [13] 1.96 µM | [14] 3.29 µM | [15] 2.89 µM | [16] 7.57 µM | [17] 3.93 µM | [18] 5.42 µM | [19] 14.8 µM | [20] 15.4 µM

COc1cccc(Nc2nc(N)nc(N)c2N=O)c1
inactive: [1] 22 µM | [2] 28.5 µM | [3] 21.3 µM | [4] 2.12 µM | [5] 10.2 µM | [6] 31.3 µM | [7] 24.4 µM | [8] 23.2 µM | [9] 30.8 µM | [10] 22.5 µM | [11] 17.1 µM | [12] 37.8 µM | [13] 31.8 µM | [14] 31 µM | [15] 9.4 µM | [16] 18.7 µM | [17] 17.8 µM | [18] 28 µM | [19] 38.6 µM | [20] 19.4 µM
